Values joined by “and” are separate entries in the source; they are usually repeats but may differ in a detail not shown here. Identical values can stand only once.
CO
Settings	viscosity
293.15 K, 100 kPa	0.587 mPa·s and 0.55 mPa·s and 0.58 mPa·s
293.31 K, 101 kPa	0.589 mPa·s
297.8 K, 101 kPa	0.5495 mPa·s
298 K, 101.3 kPa	0.59 mPa·s
298.15 K, 100 kPa	0.5417 mPa·s
298.15 K, 101.33 kPa	0.5365 mPa·s and 0.6152 mPa·s and 0.562 mPa·s
299 K, 101 kPa	0.8138 mPa·s
303 K, 100 kPa	0.5211 mPa·s and 0.5 mPa·s
303 K, 101.3 kPa	0.5773 mPa·s
303.15 K, 100 kPa	0.527 mPa·s
303.15 K, 101.33 kPa	0.5054 mPa·s and 0.541 mPa·s
303.16 K, 101 kPa	0.56 mPa·s
303.21 K, 101 kPa	0.511 mPa·s
308.15 K, 100 kPa	0.498 mPa·s and 0.491 mPa·s and 0.4987 mPa·s
308.15 K, 101.3 kPa	0.474 mPa·s
308.56 K, 101 kPa	0.476 mPa·s
313 K, 100 kPa	0.4373 mPa·s and 0.42 mPa·s
313 K, 101.3 kPa	0.455 mPa·s
313.15 K, 100 kPa	0.471 mPa·s and 0.465 mPa·s
313.15 K, 101.33 kPa	0.4423 mPa·s and 0.463 mPa·s
318.15 K, 100 kPa	0.448 mPa·s and 0.442 mPa·s and 0.4456 mPa·s
321.15 K, 101.32 kPa	0.4101 mPa·s
322.15 K, 101.32 kPa	0.4068 mPa·s
322.9 K, 101 kPa	0.3997 mPa·s
323.15 K, 100 kPa	0.3905 mPa·s and 0.428 mPa·s and 0.421 mPa·s
323.15 K, 101.3 kPa	0.396 mPa·s
323.15 K, 101.32 kPa	0.401 mPa·s
323.15 K, 101.33 kPa	0.3907 mPa·s and 0.406 mPa·s

CC[n+]1ccccc1.N#C[N-]C#N
100 kPa
Settings	viscosity [mPa·s]
293.15 K	22.1
298.15 K	18.92
303.15 K	16.44
308.15 K	14.31
313.15 K	12.48
318.15 K	10.98

Oc1ccccc1
Settings	viscosity
293.15 K, 101 kPa	11.04 mPa·s and 11.04 mPa·s and 11.04 mPa·s
293.2 K, 101 kPa	11.04 mPa·s
293.25 K, 101 kPa	11.04 mPa·s and 11.04 mPa·s
298 K, 101.3 kPa	9.41 mPa·s
298.15 K, 101 kPa	8.945 mPa·s
302.95 K, 101 kPa	7.09 mPa·s and 7.1 mPa·s
303 K, 101.3 kPa	7.553 mPa·s
303.05 K, 101 kPa	7.09 mPa·s
303.1 K, 101 kPa	7 mPa·s
303.15 K, 101.33 kPa	7 mPa·s
308 K, 101.3 kPa	6.106 mPa·s
308.1 K, 101 kPa	5.55 mPa·s
308.15 K, 101 kPa	6.032 mPa·s and 4.649 mPa·s
308.15 K, 101.33 kPa	5.969 mPa·s
313 K, 101.3 kPa	4.971 mPa·s
313.05 K, 101 kPa	4.79 mPa·s
313.25 K, 101 kPa	4.74 mPa·s
313.35 K, 101 kPa	4.74 mPa·s
318 K, 101.3 kPa	4.056 mPa·s
322.95 K, 101 kPa	3.28 mPa·s
323.1 K, 101 kPa	3.2 mPa·s and 3.2 mPa·s
323.15 K, 101.33 kPa	3.2 mPa·s and 3.432 mPa·s
